{"source": "patent US20090118337A1", "about": "“Methods and compositions for treating inflammation” (priority 2005, published 2009)", "key": {"NF-κB": {"test_system": "NF-κB", "assay": "NF-κB luciferase reporter gene assay in 16HBEo- cell pairs stimulated with PAO1", "type": "cell-based, human", "conditions": "PAO1 stimulation, FIG. 2", "experimental": "Cell lines: 16HBE-S and 16HBE-AS cells were grown in EMEM supplemented with 10% fetal bovine serum, 2 mM L-glutamine, 100 units/100 μg per ml of penicillin-streptomycin and 400 μg/ml G-418 as previously described.\nReporter Gene Assays: Cells were seeded in 24-well tissue culture dishes 24 hours before transfection. 20 ug luciferase plasmid and 10 ug Renilla plasmid were mixed into 2 mls serum-free DMEM. NFκB luciferase and AP-1 plasmids were purchased from BD Biosciences CLONTECH. pRLTK was used as an internal control for transfection efficiency.\n300 ul Lipofectamine PLUS reagent (Invitrogen) was mixed with 200 ul serum-free DMEM. The PLUS reagent and plasmid were incubated for 15 minutes at room temperature. 100 ul Lipofectamine was added to 2.4 ml serum-free DMEM.\nThe lipofectamine and the DNA-PLUS solutions were mixed and incubated for an additional 15 minutes. The transfection mix was diluted into 20 mls of serum-free DMEM. 250 ul of diluted transfection mix was added to each well and the cells were incubated for 3 hours. Cells were lysed and the lysates assayed for luciferase activity.\nA final stock concentration of 10 mM troglitazone (Cayman Chemical) was dissolved in DMSO and diluted to various concentrations. DMSO was added to the cells as a control. […]"}, "IL-8": {"test_system": "IL-8", "assay": "IL-8 secretion of cells grown with I172", "type": "cell-based, human", "conditions": "cells grown with I172, day 3", "experimental": "(§1) At three or four weeks, on day 0, cells are switched to submerged culture (liquid-liquid interface, LLI) and treated with either DMSO 1:1000 (vehicle control, normal cells, Sigma, St. Louis, Mo.), or 20 μM CFTRinh-172 (kindly provided by Alan Verkman) prepared in DMSO, and diluted from a 1:1000 stock. Drugs are added to both the basolateral (1 or 2 ml volume, according to filter size) and the apical side (0.35 or 1.5 ml) and media replenished every 24H. […] At day 3, cells were committed to inflammatory stimulation with TNF IL-1 or PAO1 as indicated below. Cells committed to PAO1 stimulation were switched to serum-free media 24H prior PAO1 stimulation, kept in serum-free media until the end of the experiment, and media replenished every 12H during that time. Serum-free media contained 1:1 DMEM-Ham's F-12, pH. 7.2, L-glutamine 2.5 mM, Penicillin/Streptomycin 100 units/100 μg per ml, gentamicin 50 μg/ml, amphotericin B 1.25 μg/ml from Gibco, Invitrogen Corporation, Carlsbad, Calif.; fluconazole 2 μg/ml (DIFLUCON®, Pfizer); transferrin 5 μg/ml, hydrocortisone 5 μM, insulin 5 μg/ml, endothelial cell growth supplement 20 μg/mil, and bovine serum albumin 1 mg/ml from Sigma, St. Louis, Mo. Serum-containing media had the same antibiotics present as the serum-free media. Antibiotics were not present during PAO1 stimulation."}, "[1]": {"test_system": "well differentiated airway epithelial cells", "conditions": "20 μM I172; cited from earlier work"}, "[2]": {"test_system": "amiloride-sensitive sodium conductance", "conditions": "cells grown with 20 μM I172; cited from earlier work"}, "Smad3": {"test_system": "Smad3", "assay": "Smad3 expression in cells grown with I172", "type": "cell-based, human", "conditions": "cells grown with I172, day 3", "experimental": "as §1"}, "RhoA": {"test_system": "RhoA", "assay": "Activated RhoA in cells grown with I172", "type": "cell-based, human", "conditions": "cells grown with I172, day 3", "experimental": "as §1"}, "[3]": {"test_system": "interaction between PPARγ and other transcription factors", "assay": "Interaction of PPARγ with other transcription factors in well differentiated airway epithelial cells treated with I172", "type": "cell-based, human", "conditions": "I172 20 uM for 72 hr; particularly following stimulation with TNFα/IL1β", "experimental": "Transcription Factor Arrays: TranSignal TF-TF Interaction Array I (Panomics) was processed according to the manufacturer's instructions. Nuclear extracts from 16HBEo-sense and antisense cells were incubated with biotin-labeled double-stranded oligonucleotides. PPARγ was immunoprecipitated with 3 μg of monoclonal antibody and Dynabeads (Dynal), which are magnetic protein G beads. Free cis-elements and non-specific binding proteins were washed away. PPARγ associated biotin-labeled probes were eluted from the beads and hybridized to TranSignal Protein/DNA array membranes. The arrays were blocked and incubated with Streptavidin-HRP and developed with a chemiluminescent detection system.\nIn order to test the impact of CFTR deficiency on the interaction of PPAR-γ with other transcription factors, we treated well differentiated airway epithelial cells grown at the ALI with I172 (20 uM), an inhibitor of CFTR activity, continuously for 72 hr prior to preparation of nuclear extracts or stimulation. […] This model allows one to compare, in well-differentiated airway epithelial cells that have identical genetic endowment at all loci, the effect of CFTR inhibition on various cellular processes. […] During the course of these experiments, cells from the airways of a patient with CF of genotype ΔF508/ΔF508, obtained at transplant, became available and were cultured at the air-liquid interface."}, "[4]": {"conditions": "high dose, CF; cited from earlier work"}, "[5]": {"test_system": "CF mice challenged with M57-15 P. aeruginosa", "assay": "Acute Pseudomonas challenge model, CF mice (BAL inflammatory response)", "type": "in vivo", "conditions": "pretreated by gavage, BAL 24 hours after P. aeruginosa challenge", "experimental": "Pioglitazone inhibits the inflammatory response in CF mice to acute administration of Pseudomonas: Mice pretreated with pioglitazone or vehicle by gavage, then challenged with prior to challenge with M57-15 P. aeruginosa, underwent BAL for inflammatory response outcome measures 24 hours after challenge. Cell counts, cytokine values, and body weight were recorded. […] CF mice treated with vehicle had marked increase in inflammatory response compared to WT mice treated with vehicle, as previously reported for untreated mice (FIGS. 12-14).\nIn order to test the therapeutic potential of PPARγ agonists in CF animals, we utilized the acute pseudomonas challenge model in CF and non-CF mice, because it was the closest mimic of the acute pseudomonas challenge applied to the epithelial cells in culture. We administered pioglitazone by gavage because this is one of the two PPARγ agonists available for human use. […] However, the dose used in these studies was high compared to conventional human doses, on a weight basis, and the drug was administered prior to challenge, a luxury that may not be available for many patients with CF."}}, "note": "Entries after “also recorded” stand apart in the source; their conditions may differ.", "data": [{"smiles": "Cc1c(C)c2c(c(C)c1O)CCC(C)(COc1ccc(CC3SC(=O)NC3=O)cc1)O2", "note": "(single isomer, unassigned; (+)) [troglitazone, (+)-5[[4-[(3,4-dihydro-6-hydroxy-2,5,7,8-tetramethyl-2H-1-benzopyran-2-yl)methoxy]phenyl]methyl]-2,4thiazolidinedione]", "values": [{"measurement": "activation of NF-κB driven luciferase activity", "setting": "NF-κB", "value": "significantly inhibited"}]}, {"smiles": "O=C(O)c1ccc(/C=C2\\SC(=S)N(c3cccc(C(F)(F)F)c3)C2=O)cc1", "note": "[I172]", "values": [{"measurement": "basal and stimulated secretion of IL-8", "setting": "IL-8", "value": "increased basal and stimulated secretion of IL-8"}, {"measurement": "cell morphology by electron microscopy", "setting": "[1]", "value": "no decrease in cell viability or change in cell morphology"}, {"measurement": "cell viability", "setting": "[1]", "value": "no decrease in cell viability; also recorded: without compromising cell viability"}, {"measurement": "amiloride-sensitive sodium conductance", "setting": "[2]", "value": "do not display increased amiloride-sensitive sodium conductance"}, {"measurement": "Smad3 expression", "setting": "Smad3", "value": "decreased Smad3 expression"}, {"measurement": "activated RhoA", "setting": "RhoA", "value": "increased activated RhoA"}, {"measurement": "interaction between PPARγ and other transcription factors", "setting": "[3]", "value": "less interaction"}]}, {"smiles": "CC(C)Cc1ccc(C(C)C(=O)O)cc1", "note": "(centres unmarked) [ibuprofen]", "values": [{"measurement": "incidence of gastrointestinal hemorrhage", "setting": "[4]", "value": "increased incidence"}, {"measurement": "rate of decline of pulmonary function", "setting": "[4]", "value": "slowed"}]}, {"smiles": "CCc1ccc(CCOc2ccc(CC3SC(=O)NC3=O)cc2)nc1", "note": "(centres unmarked) [pioglitazone, 5-[4-[2-(5-ethylpyridin-2-yl)ethoxyl]benzyl]thiazolidine-2,4-dione]", "values": [{"measurement": "inflammatory response (BAL cell counts, cytokine values, body weight) in CF mice", "setting": "[5]", "value": "significant reduction of the inflammatory response; also recorded: In two of the three experiments, pioglitazone limited the inflammatory response; also recorded: significant reduction in inflammatory response"}]}]}
